Data on 6 molecules can be found in patent US20230322861A1, “SYNTHETIC PEPTIDES FOR DISSOLVING TAU INCLUSIONS” (The Trustees of Princeton University, priority 2022, published 2023).

Common to all, as to type: cell-based
Series [1] concerns tau aggregate-containing cells (strain DS18). Put plainly: curing of tau aggregates in colonies of tau aggregate-containing cells expressing mCherry or SubF-mCherry. Conditions: expressed for a week, passaged at low density, imaged after 7 days, 14 fields of view; representative field FIGS. 3A-3B. The protocol:
FIGS. 3A-3B are images of representative fields of view of mCherry (3A) or SubF-mCherry (3B) in tau aggregate-containing cell colonies.
As an example of this, mCherry or SubF-mCherry were expressed in tau aggregate-containing cells (strain DS18) for a week. Cells were then passaged into a new dish at low density. After 7 days, 14 fields of view were imaged for each condition, and the fraction of colonies cured of tau aggregates was determined.

In series [2] the test system is tau inclusions. The experiment in a line: co-expression of fluorescent-tagged tau inclusions with mCherry-tagged synthetic peptide sequences; probability of cells containing a tau inclusion. Conditions: at different concentrations of co-expressed peptide-mCherry fusion; FIGS. 2A-2K. The method, then: Various peptide sequences were tested by co-expressing fluorescent-tagged tau inclusions with mCherry-tagged synthetic peptide sequences, and quantifying a probability of cells containing a tau inclusion at different synthetic peptide concentrations.

Series [3] relates to tau inclusions. The description is as above. Conditions: cells expressing peptide-mCherry fusion; FIGS. 2H, 2J, 2K.

Regarding “Sub F-mCherry: SubF sequence (KRKRR followed by 42 serines, SEQ ID NO. 3) fused to mCherry (KRKRRSSSSSSSSSSSSSSSSSSSSSSSSSSSSSSSSSSSSSSSSSS)”, the “colonies with / cured of tau aggregates” value in series [1] is “many of the 27 colonies lack aggregates in all cells”.
Turning to “SR Kinase (SRSRS) (ARSRSRSSSSSSSSSSSSSSSSSSSSSSSSSSSSSSSSSSSSSSSSSSSSSA) [#10, 13, mCherry-tagged]”, the “probability of cells containing a tau inclusion” value (“probability” below) in series [2] is “reducing tau inclusions, relatively rapidly”. Besides, in series [3], the “tau-negative aggregates (aggregates formed absent the presence of tau)” value is “tau-negative aggregates were noted”.
As for “CK2 (SDSDS) (ASSSDSDSSSSSSSSSSSSSSSSSSSSSSSSSSSSSSSSSSSSSSSSSSSSA) [#11, 14, mCherry-tagged]”, the “probability” value in series [2] was “reduces tau inclusion”. The “tau-negative aggregates (aggregates formed absent the presence of tau)” value in series [3] is “without forming tau-negative aggregates”.
For S52 (Pure Polyserine) [#8] the same measures were “no decrease in tau inclusions was seen” and “tau-negative aggregates were noted”.
With “SubF Scramble (SSSRSSSSSKSSSSSSASSSSPSSASSSSSRSSSSPSSSSSSKSSSSSRSSS) [#9, 12, mCherry-tagged]”, the “probability” value in series [2] is listed as “no reduction in tau inclusions was seen”.

B1: Human SRRM2 Isoform 1 Fragment 26 (F26) WT (peptide)
chain: SSSSSSGSSSSDSEGSSLPVQPEVALKRVPSPTPAPKEAVREGRPPEPTPAKRKRRSSSSSSSSSSSSSSSSSSSSSSSS
notes: 5, mCherry-tagged
Take B1: in series [2], the “probability” value is recorded as “reduce the probability of tau inclusions to zero”.
